Laboratory results taken from PubChem BioAssay AID328 (DTP/NCI, 2004).
Where “and” joins values, the source holds several entries; their conditions need not be identical. Equal entries are not always repeated. Toxic doses and inconclusive results are not listed.

Tested on: BDF1 mice, P388 leukemia ip, median survival T/C
Assay: NCI In Vivo Anticancer Drug Screen. Data for tumor model P388 Leukemia (intraperitoneal) in B6D2F1 (BDF1) mice
Settings: endpoint: median survival time, higher = longer survival
Description: The antitumor activity of compounds was measured in mice bearing transplantable tumors. Survival or tumor size were measured and the results are expressed as the measurement made in the treated group (T) divided by the measurement made in the vehicle treated control group (C). The tumor model used in this assay is P388 Leukemia (intraperitoneal) in B6D2F1 (BDF1) mice

[1] = dose: 25.0 mg/kg/injection, schedule: Q01DX009 (ip), vehicle: Klucel (hydroxypropylcellulose) (HPC)
[2] = dose: 50.0 mg/kg/injection, schedule: Q01DX009 (ip), vehicle: Klucel (hydroxypropylcellulose) (HPC)
[3] = dose: 100.0 mg/kg/injection, schedule: Q01DX009 (ip), vehicle: saline
[4] = dose: 400.0 mg/kg/injection, schedule: Q01DX009 (ip), vehicle: saline
[5] = dose: 50.0 mg/kg/injection, schedule: Q01DX009 (ip), vehicle: saline
[6] = dose: 50.0 mg/kg/injection, schedule: Q01DX009 (ip), vehicle: saline with Tween-80
[7] = dose: 100.0 mg/kg/injection, schedule: Q01DX009 (ip), vehicle: saline with Tween-80
[8] = dose: 200.0 mg/kg/injection, schedule: Q01DX009 (ip), vehicle: saline with Tween-80
[9] = dose: 400.0 mg/kg/injection, schedule: Q01DX009 (ip), vehicle: saline with Tween-80
[10] = dose: 100.0 mg/kg/injection, schedule: Q04DX003 (ip), vehicle: saline with Tween-80
[11] = dose: 25.0 mg/kg/injection, schedule: Q01DX009 (ip), vehicle: saline

CNc1ccc(/C=C2\C=Cc3ccccc32)cc1
T/C (dose: 12.0 mg/kg/injection, schedule: Q01DX009 (ip), vehicle: Klucel (hydroxypropylcellulose) (HPC)): 118 % of control
T/C (dose: 12.0 mg/kg/injection, schedule: Q01DX009 (ip), vehicle: gum acacia): 107 % of control
T/C (dose: 12.5 mg/kg/injection, schedule: Q04DX003 (ip), vehicle: gum acacia): 103 % of control
T/C [1]: 100 % of control
T/C (dose: 25.0 mg/kg/injection, schedule: Q01DX009 (ip), vehicle: gum acacia): 103 % of control
T/C (dose: 25.0 mg/kg/injection, schedule: Q04DX003 (ip), vehicle: Klucel (hydroxypropylcellulose) (HPC)): 104 % of control
T/C (dose: 25.0 mg/kg/injection, schedule: Q04DX003 (ip), vehicle: gum acacia): 100 % of control
T/C [2]: 90 % of control
T/C (dose: 50.0 mg/kg/injection, schedule: Q01DX009 (ip), vehicle: gum acacia): 92 % of control
T/C (dose: 50.0 mg/kg/injection, schedule: Q04DX003 (ip), vehicle: Klucel (hydroxypropylcellulose) (HPC)): 100 % of control
T/C (dose: 50.0 mg/kg/injection, schedule: Q04DX003 (ip), vehicle: gum acacia): 103 % of control
T/C (dose: 100.0 mg/kg/injection, schedule: Q04DX003 (ip), vehicle: Klucel (hydroxypropylcellulose) (HPC)): 86 % of control and 95 % of control

O=c1[nH]cnc2c1nnn2C1OC(CO)C(O)C1O (configuration not stated)
T/C (dose: 50.0 mg/kg/injection, schedule: Q01DX006 (ip), vehicle: saline): 95 % of control
T/C (dose: 130.0 mg/kg/injection, schedule: Q01DX006 (ip), vehicle: saline): 117 % of control

COc1cc2ccc3c(c2cc1OC)CNCC3
T/C (dose: 50.0 mg/kg/injection, schedule: Q04DX003 (ip), vehicle: saline): 104 % of control
T/C (dose: 100.0 mg/kg/injection, schedule: Q04DX003 (ip), vehicle: saline): 109 % of control
T/C (dose: 200.0 mg/kg/injection, schedule: Q04DX003 (ip), vehicle: saline): 109 % of control

OCC1CC=CCC1 (configuration not stated)
T/C [3]: 114 % of control
T/C (dose: 200.0 mg/kg/injection, schedule: Q01DX009 (ip), vehicle: saline): 109 % of control
T/C [4]: 119 % of control

CC1(COCCOCC2(C)CO2)CO1 (configuration not stated)
T/C [4]: 175 % of control
T/C (dose: 600.0 mg/kg/injection, schedule: Q01DX009 (ip), vehicle: saline): 208 % of control

CCCn1cnc2c(=S)nc(N)[nH]c21
T/C (dose: 6.25 mg/kg/injection, schedule: Q01DX009 (ip), vehicle: Klucel (hydroxypropylcellulose) (HPC)): 100 % of control
T/C (dose: 12.5 mg/kg/injection, schedule: Q01DX009 (ip), vehicle: Klucel (hydroxypropylcellulose) (HPC)): 86 % of control
T/C [1]: 86 % of control
T/C (dose: 29.0 mg/kg/injection, schedule: Q04DX003 (ip), vehicle: Klucel (hydroxypropylcellulose) (HPC)): 110 % of control
T/C (dose: 45.0 mg/kg/injection, schedule: Q04DX003 (ip), vehicle: Klucel (hydroxypropylcellulose) (HPC)): 115 % of control
T/C [2]: 105 % of control
T/C (dose: 150.0 mg/kg/injection, schedule: Q04DX003 (ip), vehicle: Klucel (hydroxypropylcellulose) (HPC)): 150 % of control
T/C (dose: 200.0 mg/kg/injection, schedule: Q04DX003 (ip), vehicle: Klucel (hydroxypropylcellulose) (HPC)): 118 % of control

Nc1ccc2cn[nH]c2c1
T/C (dose: 25.0 mg/kg/injection, schedule: Q01DX009 (ip), vehicle: water): 99 % of control
T/C (dose: 50.0 mg/kg/injection, schedule: Q01DX009 (ip), vehicle: water): 103 % of control
T/C (dose: 50.0 mg/kg/injection, schedule: Q04DX003 (ip), vehicle: water): 103 % of control
T/C (dose: 100.0 mg/kg/injection, schedule: Q01DX009 (ip), vehicle: water): 89 % of control
T/C (dose: 100.0 mg/kg/injection, schedule: Q04DX003 (ip), vehicle: water): 116 % of control
T/C (dose: 200.0 mg/kg/injection, schedule: Q01DX009 (ip), vehicle: water): 94 % of control
T/C (dose: 200.0 mg/kg/injection, schedule: Q04DX003 (ip), vehicle: water): 110 % of control
T/C (dose: 400.0 mg/kg/injection, schedule: Q01DX009 (ip), vehicle: water): 94 % of control
T/C (dose: 400.0 mg/kg/injection, schedule: Q04DX003 (ip), vehicle: water): 116 % of control

Cc1cc(C)c(C#N)c(=O)[nH]1
T/C [5]: 99 % of control
T/C [3]: 94 % of control

CCCCCn1c(Cl)c(/C=N\Nc2ccccc2[N+](=O)[O-])c2ccccc21
T/C (dose: 100.0 mg/kg/injection, schedule: Q01DX001 (ip), vehicle: Klucel (hydroxypropylcellulose) (HPC)): 105 % of control
T/C (dose: 200.0 mg/kg/injection, schedule: Q01DX001 (ip), vehicle: Klucel (hydroxypropylcellulose) (HPC)): 96 % of control
T/C (dose: 400.0 mg/kg/injection, schedule: Q01DX001 (ip), vehicle: Klucel (hydroxypropylcellulose) (HPC)): 118 % of control

O=C(NC(=O)OCCCCCl)Nc1cccc(Cl)c1
T/C [6]: 100 % of control
T/C [7]: 98 % of control
T/C [8]: 88 % of control

OC(CCl)C(O)C(O)C(O)CCl (configuration not stated)
T/C [7]: 100 % of control
T/C [8]: 113 % of control
T/C [9]: 100 % of control

O=S(=O)(F)c1cccc(C[P+](c2ccccc2)(c2ccccc2)c2ccccc2)c1
T/C (dose: 5.5 mg/kg/injection, schedule: Q01DX009 (ip), vehicle: Klucel (hydroxypropylcellulose) (HPC)): 118 % of control
T/C (dose: 70.0 mg/kg/injection, schedule: Q04DX003 (ip), vehicle: Klucel (hydroxypropylcellulose) (HPC)): 118 % of control and 120 % of control
T/C (dose: 73.0 mg/kg/injection, schedule: Q04DX003 (ip), vehicle: Klucel (hydroxypropylcellulose) (HPC)): 118 % of control
T/C (dose: 170.0 mg/kg/injection, schedule: Q04DX003 (ip), vehicle: Klucel (hydroxypropylcellulose) (HPC)): 95 % of control
T/C (dose: 255.0 mg/kg/injection, schedule: Q04DX003 (ip), vehicle: Klucel (hydroxypropylcellulose) (HPC)): 108 % of control and 120 % of control

CCS(=O)(=O)OC1CCCCCCC1NC(=O)c1ccccc1 (configuration not stated)
T/C (dose: 25.0 mg/kg/injection, schedule: Q01DX009 (ip), vehicle: saline with Tween-80): 95 % of control
T/C [6]: 109 % of control
T/C [7]: 104 % of control

Nc1nccnc1N
T/C [6]: 110 % of control
T/C (dose: 50.0 mg/kg/injection, schedule: Q04DX003 (ip), vehicle: saline with Tween-80): 95 % of control
T/C [7]: 115 % of control
T/C [10]: 100 % of control
T/C [8]: 120 % of control
T/C (dose: 200.0 mg/kg/injection, schedule: Q04DX003 (ip), vehicle: saline with Tween-80): 87 % of control

CN=C(N)c1ccc(NC(=O)c2ccc(C(=O)Nc3ccc(C(N)=NC)cc3)cc2)cc1
T/C (dose: 15.0 mg/kg/injection, schedule: Q01DX010 (ip), vehicle: saline): 150 % of control and 160 % of control
T/C (dose: 30.0 mg/kg/injection, schedule: Q01DX010 (ip), vehicle: saline): 160 % of control and 175 % of control
T/C (dose: 60.0 mg/kg/injection, schedule: Q01DX010 (ip), vehicle: saline): 175 % of control and 180 % of control
T/C (dose: 120.0 mg/kg/injection, schedule: Q01DX010 (ip), vehicle: saline): 160 % of control

CCCCCCOP(=O)(N1CC1)N1CC1
T/C [11]: 123 % of control
T/C [5]: 90 % of control
T/C [10]: 113 % of control

CCOC(=O)c1cc(C(=O)OCC)c(=O)oc1OCC
T/C [11]: 118 % of control
T/C [5]: 104 % of control
T/C [3]: 118 % of control

CC1OC(OC2C(CO)OC(O[C@H]3CC[C@@]4(C)C(=CC[C@H]5[C@@H]6C[C@@H]7O[C@@]8(CC[C@H](C)CN8)[C@@H](C)[C@@H]7[C@@]6(C)CC[C@@H]54)C3)C(OC3OC(C)C(O)C(O)C3O)C2O)C(O)C(O)C1O (some centres not stated)
T/C (dose: 2.5 mg/kg/injection, schedule: Q01DX009 (ip), vehicle: water): 95 % of control and 100 % of control
T/C (dose: 5.0 mg/kg/injection, schedule: Q01DX009 (ip), vehicle: water): 109 % of control
T/C (dose: 10.0 mg/kg/injection, schedule: Q01DX009 (ip), vehicle: water): 100 % of control and 104 % of control
T/C (dose: 20.0 mg/kg/injection, schedule: Q01DX009 (ip), vehicle: water): 95 % of control and 100 % of control

O=C(Nc1ccc([N+](=O)[O-])cc1)Nc1ccc([N+](=O)[O-])c(C(F)(F)F)c1
T/C [7]: 87 % of control
T/C (dose: 110.0 mg/kg/injection, schedule: Q01DX009 (ip), vehicle: Klucel (hydroxypropylcellulose) (HPC)): 105 % of control and 117 % of control
T/C (dose: 170.0 mg/kg/injection, schedule: Q01DX009 (ip), vehicle: Klucel (hydroxypropylcellulose) (HPC)): 121 % of control
T/C [8]: 95 % of control
T/C (dose: 225.0 mg/kg/injection, schedule: Q01DX009 (ip), vehicle: Klucel (hydroxypropylcellulose) (HPC)): 105 % of control
T/C [9]: 100 % of control

O=C1CCC([N+](=O)[O-])C(c2ccccc2Cl)N1 (configuration not stated)
T/C [6]: 99 % of control
T/C [7]: 86 % of control
T/C [8]: 94 % of control
